Active and inactive are the calls of the source. No cut-off for these calls is given here.
Experiments:
[1] = test system: BT-483; assay: Cytotoxicity against human BT-483 cells after 24 hrs by MTT assay; format: functional, cell-based; settings: BT-483, 24 h
[2] = test system: MCF7; assay: Cytotoxicity against human MCF7 cells after 24 hrs by MTT assay; format: functional, cell-based; settings: MCF7, 24 h
[3] = target: Serine/threonine-protein kinase PLK1 (Homo sapiens, UniProt P53350); assay: Inhibition of full length human PLK1 at 20 uM using casein as substrate after 40 mins in presence of [gamma-33P]-ATP by radiometric assay relative to control
[4] = target: T1, Eukaryotic elongation factor 2 kinase (Homo sapiens) (UniProt O00418); assay: Inhibition of GST-tagged EEF2K (unknown origin) at 20 uM using biotinylated EEF2 peptide substrate by HTRF assay relative to control
T1 sequence (whole entry): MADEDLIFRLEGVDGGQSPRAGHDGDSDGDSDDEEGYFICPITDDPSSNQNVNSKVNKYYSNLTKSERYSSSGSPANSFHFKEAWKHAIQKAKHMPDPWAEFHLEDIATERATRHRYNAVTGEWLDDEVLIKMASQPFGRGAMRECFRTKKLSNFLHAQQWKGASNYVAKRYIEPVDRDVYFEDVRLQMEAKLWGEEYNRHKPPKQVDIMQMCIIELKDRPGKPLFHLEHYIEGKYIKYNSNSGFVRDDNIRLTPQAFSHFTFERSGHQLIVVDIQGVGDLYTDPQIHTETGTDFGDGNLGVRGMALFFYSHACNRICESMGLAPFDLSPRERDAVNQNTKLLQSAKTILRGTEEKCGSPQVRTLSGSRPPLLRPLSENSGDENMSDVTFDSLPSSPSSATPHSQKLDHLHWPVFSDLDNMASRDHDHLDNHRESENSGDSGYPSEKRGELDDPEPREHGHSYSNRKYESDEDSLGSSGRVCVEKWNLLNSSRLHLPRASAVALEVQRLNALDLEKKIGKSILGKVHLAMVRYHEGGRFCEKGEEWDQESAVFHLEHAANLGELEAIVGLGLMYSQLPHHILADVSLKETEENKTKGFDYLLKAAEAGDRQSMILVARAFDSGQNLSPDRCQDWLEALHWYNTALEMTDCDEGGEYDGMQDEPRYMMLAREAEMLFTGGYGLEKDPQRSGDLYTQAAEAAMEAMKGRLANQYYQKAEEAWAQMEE

[5] = test system: MDA-MB-231; assay: Cytotoxicity against human MDA-MB-231 cells after 24 hrs by MTT assay; format: functional, cell-based
[6] = test system: BT-474; assay: Cytotoxicity against human BT474 cells after 24 hrs by MTT assay; format: functional, cell-based
[7] = test system: ZR-75-1; assay: Cytotoxicity against human ZR-75-1 cells after 24 hrs by MTT assay; format: functional, cell-based
[8] = test system: MDA-MB-468; assay: Cytotoxicity against human MDA-MB-468 cells after 24 hrs by MTT assay; format: functional, cell-based
[9] = test system: SK-BR-3; assay: Cytotoxicity against human SKBR3 cells after 24 hrs by MTT assay; format: functional, cell-based

Sequence of Serine/threonine-protein kinase PLK1 (P53350 whole entry): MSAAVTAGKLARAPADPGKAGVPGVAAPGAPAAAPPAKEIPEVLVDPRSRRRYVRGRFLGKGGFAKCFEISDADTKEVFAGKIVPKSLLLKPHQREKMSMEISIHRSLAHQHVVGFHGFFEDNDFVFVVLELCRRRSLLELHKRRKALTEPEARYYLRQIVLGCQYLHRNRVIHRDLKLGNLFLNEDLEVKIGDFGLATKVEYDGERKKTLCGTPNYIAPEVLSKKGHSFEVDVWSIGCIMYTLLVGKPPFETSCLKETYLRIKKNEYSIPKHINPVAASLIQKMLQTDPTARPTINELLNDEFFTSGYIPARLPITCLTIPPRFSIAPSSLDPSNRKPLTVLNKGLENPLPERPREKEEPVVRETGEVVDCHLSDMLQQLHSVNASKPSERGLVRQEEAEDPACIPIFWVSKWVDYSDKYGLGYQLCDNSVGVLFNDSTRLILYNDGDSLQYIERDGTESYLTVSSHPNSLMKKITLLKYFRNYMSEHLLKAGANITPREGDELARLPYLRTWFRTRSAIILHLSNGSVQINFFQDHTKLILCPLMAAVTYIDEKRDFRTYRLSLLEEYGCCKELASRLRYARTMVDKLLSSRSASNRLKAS

| Compound | IC50 [1] [µM] | IC50 [2] [µM] | inhibition [3] [%] | inhibition [4] [%] | Activity [5] | Activity [6] | Activity [7] | Activity [8] | Activity [9] |
| --- | --- | --- | --- | --- | --- | --- | --- | --- | --- |
| CCNc1cc(-c2ccc(NC(=O)Nc3ccc(C)cc3)cc2C)ccn1 | 22 | 9.21 | 47.5 | 35.4 | – | – | – | – | – |
| CCNc1cc(-c2ccc(NC(=O)Nc3cccc4ccccc34)cc2C(F)(F)F)ccn1 | > 30 | 16.3 | 54.1 | -4.29 | – | – | – | – | – |
| CCNc1cc(-c2ccc(NC(=O)Nc3ccccc3Cl)cc2C(F)(F)F)ccn1 | 20.8 | 3.68 | 71.6 | 53.6 | – | – | – | – | – |
| CCNc1cc(-c2ccc(NC(=O)Nc3ccc(OC)cc3)cc2C(F)(F)F)ccn1 | 17.6 | 5.74 | 62.1 | 51.3 | – | – | – | – | – |
| CCNc1cc(-c2ccc(NC(=O)Nc3ccccc3Cl)cc2OC)ccn1 | > 30 | 9.94 | 53.6 | 6.4 | – | – | – | – | – |
| CCNc1cc(-c2ccc(NC(=O)Nc3cc(C(F)(F)F)cc(C(F)(F)F)c3)cc2C(F)(F)F)ccn1 | > 30 | 5.96 | 66.1 | 37.2 | – | – | – | – | – |
| CCNc1cc(-c2ccc(NC(=O)Nc3ccccc3Cl)cc2C)ccn1 | > 30 | 8.35 | 49.2 | 21.7 | – | – | – | – | – |
| CC[C@@H]1C(=O)N(C)c2cnc(Nc3ccc(C(=O)NC4CCC(N5CCN(CC6CC6)CC5)CC4)cc3OC)nc2N1C(C)C (some centres not stated) | – | – | – | – | Active | Active | Active | Active | Active |
| CCNc1cc(-c2ccc(NC(=O)Nc3cccc(Cl)c3)cc2OC)ccn1 | 25.3 | 7.46 | 46.4 | 30.6 | – | – | – | – | – |
| CCNc1cc(-c2ccc(NC(=O)Nc3cccc4ccccc34)cc2C)ccn1 | > 30 | 15.5 | 35.3 | – | – | – | – | – | – |
| CCCNc1cc(-c2ccc(NC(=O)Nc3cccc(Cl)c3)cc2C(F)(F)F)ccn1 | 18.5 | 8.23 | 63 | 38.2 | – | – | – | – | – |
| CCCNc1cc(-c2ccc(NC(=O)Nc3ccc(C(F)(F)F)cc3)cc2C(F)(F)F)ccn1 | 18.8 | 7.68 | 51.3 | 33.3 | – | – | – | – | – |
| CCNc1cc(-c2ccc(NC(=O)Nc3cccc(Cl)c3)cc2C)ccn1 | 16.6 | 4.18 | 82.7 | 73.4 | – | – | – | – | – |
| O=C(Nc1cccc(Cl)c1)Nc1ccc(-c2ccnc(NCC3CC3)c2)c(C(F)(F)F)c1 | > 30 | 17.4 | 63.8 | 27.8 | – | – | – | – | – |
| CCNc1cc(-c2ccc(NC(=O)Nc3ccc(C(F)(F)F)cc3)cc2C)ccn1 | 19.7 | 6.87 | 54.8 | 55.3 | – | – | – | – | – |
| CCNc1cc(-c2ccc(NC(=O)Nc3ccc(C)cc3)cc2C(F)(F)F)ccn1 | 27.1 | 9.47 | 42.6 | 37.9 | – | – | – | – | – |
| CCNc1cc(-c2ccc(NC(=O)Nc3ccc(C(F)(F)F)cc3)cc2C(F)(F)F)ccn1 | 16.4 | 2.39 | 82.9 | 76.3 | – | – | – | – | – |
| CCNc1cc(-c2ccc(NC(=O)Nc3cccc(Cl)c3)cc2F)ccn1 | 18.5 | 6.94 | 72.7 | 52.5 | – | – | – | – | – |
| CCNc1cc(-c2ccc(NC(=O)Nc3ccc(C(F)(F)F)cc3)cc2OC)ccn1 | 25.6 | 19.5 | 40.7 | 34.6 | – | – | – | – | – |
| CCNc1cc(-c2ccc(NC(=O)Nc3ccc(OC)cc3)cc2C)ccn1 | 25.8 | 9.95 | 45.8 | 33.4 | – | – | – | – | – |
| O=C(Nc1ccc(C(F)(F)F)cc1)Nc1ccc(-c2ccnc(NCC3CC3)c2)c(C(F)(F)F)c1 | > 30 | 15.6 | 53.4 | 15.1 | – | – | – | – | – |
| CCNc1cc(-c2ccc(NC(=O)Nc3c(C)cccc3C)cc2OC)ccn1 | > 30 | 9.26 | 54.4 | – | – | – | – | – | – |
| CCNc1cc(-c2ccc(NC(=O)Nc3c(C)cccc3C)cc2C)ccn1 | > 30 | 7.92 | 42.1 | 8.7 | – | – | – | – | – |
| CCNc1cc(-c2ccc(NC(=O)Nc3ccc(OC)cc3)cc2OC)ccn1 | > 30 | 17.5 | 31.1 | 9 | – | – | – | – | – |
| CCNc1cc(-c2ccc(NC(=O)Nc3ccc(OC)cc3)cc2F)ccn1 | 19.6 | 14.1 | 47.1 | 34.4 | – | – | – | – | – |
| CCNc1cc(-c2ccc(NC(=O)Nc3ccc(C(F)(F)F)cc3)cc2F)ccn1 | 26.8 | 8.02 | 55.8 | 41.2 | – | – | – | – | – |
| CCNc1cc(-c2ccc(NC(=O)Nc3c(C)cccc3C)cc2C(F)(F)F)ccn1 | 22 | 6.95 | 59.2 | 44 | – | – | – | – | – |
